From ChEMBL document CHEMBL5131473, “One-pot synthesis of oxoaporphines as potent antitumor agents and investigation of their mechanisms of actions” (Eur J Med Chem, 2022)
The source made the active and inactive calls. No cut-off for these calls is given here.

Assays:
Format in all cases: functional, cell-based
[1] = tested on: HepG2; test: Antiproliferative activity against human HepG2 cells assessed as cell growth inhibition measured after 48 hrs by MTT assay; details: HepG2, 48 h
[2] = tested on: MGC-803; test: Antiproliferative activity against human MGC-803 cells assessed as cell growth inhibition measured after 48 hrs by MTT assay; details: MGC-803, 48 h
[3] = tested on: T-24; test: Antiproliferative activity against human T24 cells assessed as cell growth inhibition measured after 48 hrs by MTT assay; details: T-24, 48 h
[4] = tested on: SK-OV-3; test: Antiproliferative activity against human SK-OV-3 cells assessed as cell growth inhibition measured after 48 hrs by MTT assay; details: SK-OV-3, 48 h
[5] = tested on: WI-38; test: Antiproliferative activity against human WI-38 cells assessed as cell growth inhibition measured after 48 hrs by MTT assay; details: WI-38, 48 h
[6] = tested on: T-24; test: Induction of mitochondrial membrane potential dysfunction in human T24 cells assessed as mitochondrial fragment condensation at 0.5 to 1 uM by mito-tracker green dye based fluorescence microscopy; details: dose 0.5-1 µM

| SMILES | IC50 [1] [µM] | IC50 [2] [µM] | IC50 [3] [µM] | IC50 [4] [µM] | IC50 [5] [µM] | Activity [6] |
| --- | --- | --- | --- | --- | --- | --- |
| O=C1c2cc([N+](=O)[O-])ccc2-c2cccc3ccnc1c23 | > 40 | > 40 | > 40 | > 40 | > 40 |  |
| O=C1c2ccc(F)cc2-c2cccc3ccnc1c23 | 27.4 | 17.8 | 21.2 | 27.4 | 36.5 |  |
| O=C1c2cc(O)ccc2-c2cccc3ccnc1c23 | > 40 | 21.5 | 28.9 | 29.4 | > 40 |  |
| O=C1c2c(F)cccc2-c2cccc3ccnc1c23 | 30.3 | 16.2 | 15.2 | 22.3 | > 40 | Active |
| COc1cc2c3c(nccc3c1OC)C(=O)c1ccccc1-2 | 35 | 9.2 | 18.3 | 27.4 | 29.7 | Active |
| O=C1c2cc(OCc3ccccc3)ccc2-c2cccc3ccnc1c23 | > 40 | > 40 | > 40 | > 40 | > 40 |  |
| COc1ccc2c3c(nccc13)C(=O)c1cc(O)ccc1-2 | 34.1 | > 40 | 12.3 | 32.9 | > 40 |  |
| COc1cc2c3c(nccc3c1OC)C(=O)c1cc(O)ccc1-2 | 36.9 | 30.9 | 26.2 | 38.4 | > 40 |  |
| COc1cc2ccnc3c2c(c1OC)-c1ccccc1C3=O [LYSICAMINE] | > 40 | 15.8 | 7.3 | 12.1 | 6.7 |  |
| O=C1c2cc(Cl)ccc2-c2cccc3ccnc1c23 | 15.3 | 26.3 | 34.1 | > 40 | > 40 |  |
| COc1ccc2c3c(nccc13)C(=O)c1ccccc1-2 | 12.8 | 7.3 | 6.5 | 10.4 | 20.4 |  |
| COc1cc2c3c(nccc3c1OC)C(=O)c1cc(OCc3ccccc3)ccc1-2 | > 40 | 15.8 | 7.3 | 22.1 | 35.1 |  |
| COc1ccc2c(c1)C(=O)c1nccc3cccc-2c13 | 7.3 | 14.8 | 20.4 | 19.4 | 28.7 |  |
| Cc1ccc2c(c1)-c1cccc3ccnc(c13)C2=O | 30.1 | 10.6 | 8.6 | 16.7 | 32.4 |  |
| COc1cc2c(cc1OC)-c1cccc3ccnc(c13)C2=O | 35.9 | 10.9 | 22.3 | > 40 | 38.2 |  |
| Cc1ccc2c(c1)C(=O)c1nccc3cccc-2c13 | 13.1 | 10 | 12.4 | 17 | 28.4 |  |
| O=C1c2ccc(Cl)cc2-c2cccc3ccnc1c23 | > 40 | 15.9 | 16.8 | 27.2 | > 40 |  |
| O=C1c2cc3c(cc2-c2cccc4ccnc1c24)OCO3 | > 40 | 20.8 | 14.2 | 38.1 | > 40 |  |
| COc1ccc2c3c(nccc13)C(=O)c1cc(OCc3ccccc3)ccc1-2 | 25.8 | 16.7 | 19.1 | 18.5 | 38.6 |  |
| O=c1[nH]cc(F)c(=O)[nH]1 [FLUOROURACIL] | 20.4 | 39.1 | 39.4 | 21.6 | > 40 |  |
| COc1ccc2c(c1)-c1cccc3ccnc(c13)C2=O | 19.6 | 16.6 | 18.9 | 26.1 | > 40 |  |
